Test results taken from patent US20240246913A1, “2-CARBOXYL-INDOLE INHIBITORS OF METALLO-BETA-LACTAMASES” (Oxford University Innovation Limited, priority 2021, published 2024).

Legend:
[1] = tested on: Acinetobacter baumannii NDM-1; assay: Antibiotic susceptibility testing (MIC), AB NDM-1; format: cell-based; conditions: agar or broth dilution (CLSI/EUCAST)
Protocol: (§1) Antibiotic susceptibility testing was performed using the agar or broth dilution method, in line with the Clinical and Laboratory Standards Institute (CLSI) and European Committee on Antimicrobial Susceptibility Testing (EUCAST) requirements.

[2] = Plasma protein binding, equilibrium dialysis, mouse plasma; format: in vitro ADME; conditions: pH 7.4, equilibrium dialysis (RED) 4 hours at 37° C., read-out: Plasma protein binding, fu, Mouse
Protocol: The fraction of unbound compound (fu) in plasma from human or other animal species was determined by equilibrium dialysis at 37° C. for 4 hours using the Rapid Equilibrium Dialysis (RED) device (ThermoFisher Scientific). The test compound at a concentration of 10 μM was added to plasma and dialyzed against isotonic phosphate buffer (67 mM, pH 7.4) over 4 hours at 37° C. After dialysis, compound concentrations in buffer and plasma were quantified by LC-MS/MS. In parallel the stability of the compound in plasma was determined by incubating drug-spiked plasma (10 μM) at 37° C. for 4 hours, meanwhile the control plasma sample was kept in the freezer. The concentration of the compound in both samples was quantified by LC-MS/MS (Waters Corp, Milford, MA, USA).

[3] = biological target: IMP-1 (Serratia marcescens, UniProt P52699); assay: MBL inhibition, FC-5 fluorescence assay, IMP-1; format: biochemical; conditions: FC-5 cephalosporin substrate, fluorescence; ranges of obtained pIC50; read-out: pIC50 IMP-1 (converted)
Sequence of IMP-1 (P52699 19-246, looked up, species assumed): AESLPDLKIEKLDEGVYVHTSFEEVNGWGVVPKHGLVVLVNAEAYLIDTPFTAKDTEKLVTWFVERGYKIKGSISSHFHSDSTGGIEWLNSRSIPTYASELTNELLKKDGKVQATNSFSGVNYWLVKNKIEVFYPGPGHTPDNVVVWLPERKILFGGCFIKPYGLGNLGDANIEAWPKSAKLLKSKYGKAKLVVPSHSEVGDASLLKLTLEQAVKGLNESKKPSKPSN
Outline: (§2)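 Inhibition of B1 metallo-β-lactamases measured by fluorophore release on hydrolysis of the cephalosporin FC-5, following initial rates by fluorescence (ex 380/em 460 nm). Dose-response data, normalized, were fitted to a variable-slope log(inhibitor) model; four intra-plate replicates per concentration.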

[4] = biological target: VIM-1 (Pseudomonas aeruginosa, UniProt A0A0F7KYQ8); assay: MBL inhibition, FC-5 fluorescence assay, VIM-1; format: biochemical; conditions: FC-5 cephalosporin substrate, ranges of obtained pIC50, read-out: pIC50 VIM-1 (converted)
Outline: as §2

[5] = tested on: Escherichia coli NDM-1; assay: Antibiotic susceptibility testing (MIC), EC NDM-1; format: cell-based; conditions: agar or broth dilution (CLSI/EUCAST)
Protocol: as §1

[6] = Plasma protein binding, equilibrium dialysis, human plasma; format: in vitro ADME; conditions: pH 7.4, equilibrium dialysis (RED) 4 hours at 37° C., read-out: Plasma protein binding, fu, Human
Outline: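 Compound at 10 μM in plasma dialysed against 67 mM phosphate buffer pH 7.4 for 4 h at 37° C. in RED device; unbound fraction from buffer and plasma levels by LC-MS/MS. Plasma stability checked in parallel over 4 h at 37° C. versus frozen control.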

[7] = biological target: NDM-1 (Klebsiella pneumoniae, UniProt C7C422); assay: MBL inhibition, FC-5 fluorescence assay, NDM-1; format: biochemical; conditions: FC-5 cephalosporin substrate, fluorescence; ranges of obtained pIC50; read-out: pIC50 NDM-1 (converted)
Sequence of NDM-1 (C7C422 29-270, looked up, species assumed): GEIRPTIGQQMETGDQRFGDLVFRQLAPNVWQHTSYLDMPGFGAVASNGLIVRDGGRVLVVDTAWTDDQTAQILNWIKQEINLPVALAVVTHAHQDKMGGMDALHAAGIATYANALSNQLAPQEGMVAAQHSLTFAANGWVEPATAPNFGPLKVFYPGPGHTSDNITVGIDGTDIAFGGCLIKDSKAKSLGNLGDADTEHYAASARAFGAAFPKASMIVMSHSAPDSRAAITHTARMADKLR
Outline: as §2

[8] = Metabolic stability in human hepatocytes; format: in vitro ADME; conditions: cryopreserved human hepatocytes, 1 μM compound, 37° C., up to 90 min, read-out: Metabolic stability in hepatocytes, in vitro t1/2, Human
Protocol: (§3) Metabolic stability assays were performed in cryopreserved human and mouse hepatocytes. The hepatocytes were thawed and added to “Thawing media”, and centrifuged to pellet the hepatocytes. The cell pellet was taken up in Williams medium E (Invitrogen A1217601), the number of cells was calculated and adjusted to 1.0×10^6 cells/mi. The incubation was carried out on a heater-shaker at […], in a 24-well Picoplate (round bottom, PerkinElmer), using an incubation volume of […]. Thus, to obtain a final compound concentration of 1 μM, 0.7 μl of the 1 mM compound stock solution was pipetted to the wells of the plate. Reaction was initiated by adding 700 μl of cell suspension. Samples were incubated at 37° C. for […] and a zero sample was taken, i.e. 100 μl sample was removed to a 96-well plate and the reaction was quenched by adding 100 μl of 100% MeCN containing 50 nM Warfarin as an internal control. Consecutive samples were taken at time-points 5 min, 15 min, 30 min, 60 min, and 90 min. After finishing the experiment, samples were centrifuged at 3000 rpm for 15 min and before analysis by LC-MS/MS (Waters Corp, Milford, MA, USA).

[9] = Metabolic stability in mouse hepatocytes; format: in vitro ADME; conditions: cryopreserved mouse hepatocytes, 1 μM compound, 37° C., up to 90 min, read-out: Metabolic stability in hepatocytes, in vitro t1/2, Mouse
Protocol: as §3

[10] = biological target: VIM-2 (Escherichia coli, UniProt Q5U7L7); assay: MBL inhibition, FC-5 fluorescence assay, VIM-2; format: biochemical; conditions: FC-5 cephalosporin substrate, ranges of obtained pIC50, read-out: pIC50 VIM-2 (converted)
Outline: as §2

[11] = tested on: Escherichia coli NDM-7; assay: Antibiotic susceptibility testing (MIC), EC NDM-7; format: cell-based; conditions: agar or broth dilution (CLSI/EUCAST)
Protocol: as §1

Structure (SMILES) | MIC values AB NDM-1 [1] | fraction unbound at 4 h, 10 μM [2] | IC50 [3] [nM] | IC50 [4] [nM] | MIC values EC NDM-1 [5] | fraction unbound at 4 h, 10 μM [6] | IC50 [7] [nM] | half-life at 1 μM [8] [h] | half-life at 1 μM [9] [h] | IC50 [10] [nM] | MIC values EC NDM-7 [11]
CC(c1cccc2c(-c3ccc(CS(C)(=O)=O)c(F)c3)c(C(=O)O)[nH]c12)n1cc(CN)oc1=O (stereo not drawn) [IC-79, 7-(1-(5-(Aminomethyl)-2-oxooxazol-3(2H)-yl)ethyl)-3-(3-fluoro-4-((methylsulfonyl)methyl)phenyl)-1H-indole-2-carboxylic acid] | A (A = MIC values ≤ 1) | 0.05 to 0.25 | > 10 | 1 to 10 | A (A = MIC values ≤ 1) | > 0.25 | 0.1 to 1 | > 6.67 | < 2.5 | 1 to 10 | A (A = MIC values ≤ 1)
C[C@@H](c1cccc2c(-c3ccc(CS(C)(=O)=O)c(F)c3)c(C(=O)O)[nH]c12)n1cc(CCC2(N)CC2)oc1=O [IC-69, (S)-7-(1-(5-(2-(1-Aminocyclopropyl)ethyl)-2-oxooxazol-3(2H)-yl)ethyl)-3-(3-fluoro-4-((methylsulfonyl)methyl)phenyl)-1H-indole-2-carboxylic acid] | B (B MIC values 2 ÷ 8) | 0.005 to 0.05 | > 10 | 0.1 to 1 | A (A = MIC values ≤ 1) | 0.05 to 0.25 | < 0.1 | > 6.67 | < 2.5 | 0.1 to 1 | A (A = MIC values ≤ 1)
C[C@@H](c1cccc2c(-c3ccc(CS(C)(=O)=O)c(F)c3)c(C(=O)O)[nH]c12)N1CC2(CN(C(=N)N)C2)OC1=O [IC-66, (S)-7-(1-(2-carbamimidoyl-6-oxo-5-oxa-2,7-diazaspiro[3.4]octan-7-yl)ethyl)-3-(3-fluoro-4-((methylsulfonyl)methyl)phenyl)-1H-indole-2-carboxylic acid] | B (B MIC values 2 ÷ 8) | 0.005 to 0.05 | > 10 | 0.1 to 1 | A (A = MIC values ≤ 1) | > 0.25 | 0.1 to 1 | 2.5 to 6.67 | > 6.67 | 0.1 to 1 | A (A = MIC values ≤ 1)
CC(c1cccc2c(-c3ccc(CS(C)(=O)=O)c(F)c3)c(C(=O)O)[nH]c12)n1cc(CCC2(N)CC2)oc1=O (stereo not drawn) [IC-74, 7-(1-(5-(2-(1-aminocyclopropyl)ethyl)-2-oxooxazol-3(2H)-yl)ethyl)-3-(3-fluoro-4-((methylsulfonyl)methyl)phenyl)-1H-indole-2-carboxylic acid] | B (B MIC values 2 ÷ 8) | 0.05 to 0.25 | > 10 | 0.1 to 1 | A (A = MIC values ≤ 1) | 0.05 to 0.25 | < 0.1 | > 6.67 | < 2.5 | 0.1 to 1 | A (A = MIC values ≤ 1)
C[C@@H](c1cccc2c(-c3ccc(CS(C)(=O)=O)c(F)c3)c(C(=O)O)[nH]c12)n1cc(CCCN)oc1=O [IC-70, (S)-7-(1-(5-(3-aminopropyl)-2-oxooxazol-3(2H)-yl)ethyl)-3-(3-fluoro-4-((methylsulfonyl)methyl)phenyl)-1H-indole-2-carboxylic acid] | A (A = MIC values ≤ 1) | 0.005 to 0.05 | > 10 | 0.1 to 1 | A (A = MIC values ≤ 1) | 0.05 to 0.25 | < 0.1 | > 6.67 | 2.5 to 6.67 | 0.1 to 1 | A (A = MIC values ≤ 1)
C[C@@H](c1cccc2c(-c3ccc(CS(C)(=O)=O)c(F)c3)c(C(=O)O)[nH]c12)N1CC2(CCC(N)CC2)OC1=O (stereo partly drawn) [IC-71, (S)-7-(1-(8-amino-2-oxo-1-oxa-3-azaspiro[4.5]decan-3-yl)ethyl)-3-(3-fluoro-4-((methylsulfonyl)methyl)phenyl)-1H-indole-2-carboxylic acid] | C (C = MIC values > 8) | > 0.25 | > 10 | > 10 | B (B MIC values 2 ÷ 8) | > 0.25 | 1 to 10 | > 6.67 | 2.5 to 6.67 | 1 to 10 | A (A = MIC values ≤ 1)
C[C@@H](c1cccc2c(-c3ccc(NS(C)(=O)=O)c(C#N)c3)c(C(=O)O)[nH]c12)n1cc(CN2CC(N)C2)oc1=O [IC-55, 7-[(1S)-1-{5-[(3-aminoazetidin-1-yl)methyl]-2-oxo-2,3-dihydro-1,3-oxazol-3-yl}ethyl]-3-(3-cyano-4-methanesulfonamidophenyl)-1H-indole-2-carboxylic acid] | B (B MIC values 2 ÷ 8) | 0.005 to 0.05 | > 10 | > 10 | B (B MIC values 2 ÷ 8) | 0.05 to 0.25 | < 0.1 | 2.5 to 6.67 | 2.5 to 6.67 | 0.1 to 1 | B (B MIC values 2 ÷ 8)
C[C@@H](c1cccc2c(-c3ccc(NS(C)(=O)=O)c(C#N)c3)c(C(=O)O)[nH]c12)N1C[C@]2(C[C@@H](CN)C2)OC1=O [IC-16, 7-((1S)-1-(2-(aminomethyl)-6-oxo-5-oxa-7-azaspiro[3.4]octan-7-yl)ethyl)-3-(3-cyano-4-(methylsulfonamido)phenyl)-1H-indole-2-carboxylic acid] | B (B MIC values 2 ÷ 8) | 0.05 to 0.25 | > 10 | 1 to 10 | A (A = MIC values ≤ 1) | 0.05 to 0.25 | < 0.1 | > 6.67 | > 6.67 | 0.1 to 1 | A (A = MIC values ≤ 1)
CC(c1cccc2c(-c3ccc(CS(C)(=O)=O)c(F)c3)c(C(=O)O)[nH]c12)n1cc(CNC(=O)CN)oc1=O (stereo not drawn) [IC-80, 7-(1-(5-((2-Aminoacetamido)methyl)-2-oxooxazol-3(2H)-yl)ethyl)-3-(3-fluoro-4-((methylsulfonyl)methyl)phenyl)-1H-indole-2-carboxylic acid] | B (B MIC values 2 ÷ 8) | 0.05 to 0.25 | > 10 | 1 to 10 | A (A = MIC values ≤ 1) | > 0.25 | 0.1 to 1 | > 6.67 | < 2.5 | 1 to 10 | A (A = MIC values ≤ 1)
